Reference: PMC11822212, “High-throughput screening identifies Aurora kinase B as a critical therapeutic target for Merkel cell carcinoma” (Nature Communications, 2025)
Counter-ions that a name gives are not always drawn. Like-named read-outs stand apart in the source and are kept apart here.

Columns and labels:
[1] = system: VP-MCC cell lines (WAGA, MKL-1, MKL-2); test: qHTS cell viability, VP-MCC cell lines as a group (mean AUC, VP.MCC.avg); type: cell-based, human
[2] = system: VN-MCC cell lines (MCC13, MCC26, UISO); test: qHTS cell viability, VN-MCC cell lines as a group (mean AUC, VN.MCC.avg); type: cell-based, human
[3] = system: six MCC cell lines and four control cell lines; test: qHTS cell viability, all 10 cell lines screened; type: cell-based
[4] = system: MCC cell lines (WAGA, MKL-1, MKL-2, MCC13, MCC26, UISO); test: qHTS cell viability, all six MCC cell lines as a group (mean AUC, MCC.avg); type: cell-based, human
MCC13 cells (VN-MCC) = test: qHTS cell viability (CellTiter-Glo, 72 h; primary and follow-up small molecule screen); type: cell-based, human; conditions: area under the dose-response curve, MCC13 cells; AUC<450 = reduced viability
MCC26 cells (VN-MCC) = test: as above; type: cell-based, human; conditions: area under the dose-response curve, MCC26 cells; AUC<450 = reduced viability
UISO cells (VN-MCC) = test: as above; type: cell-based, human; conditions: area under the dose-response curve, UISO cells; AUC<450 = reduced viability
WAGA cells (VP-MCC) = test: as above; type: cell-based, human; conditions: area under the dose-response curve, WAGA cells; AUC<450 = reduced viability
MKL-1 cells (VP-MCC) = test: as above; type: cell-based, human; conditions: area under the dose-response curve, MKL-1 cells; AUC<450 = reduced viability
MKL-2 cells (VP-MCC) = test: as above; type: cell-based, human; conditions: area under the dose-response curve, MKL-2 cells; AUC<450 = reduced viability
HACAT cells = test: qHTS cell viability (CellTiter-Glo, 72 h; primary screen), control cell line; type: cell-based, human; conditions: area under the dose-response curve, HACAT control cells; AUC<450 = reduced viability
HEK293T cells = test: as above; type: cell-based, human; conditions: area under the dose-response curve, HEK293T control cells; AUC<450 = reduced viability
NIH-3T3 cells = test: as above; type: cell-based, mouse; conditions: area under the dose-response curve, NIH3T3 control cells; AUC<450 = reduced viability
CRL-7250 cells = test: as above; type: cell-based; conditions: area under the dose-response curve, CRL7250 control cells; AUC<450 = reduced viability

CCc1c2c(nc3ccc(OC(=O)N4CCC(N5CCCCC5)CC4)cc13)-c1cc3c(c(=O)n1C2)COC(=O)[C@]3(O)CC.Cl [Irinotecan hydrochloride]
Control-VP-MCC [1]: 114.533
Control-VN-MCC [2]: 24.3005
Control-MCC [3]: 69.4165

CCOC(=O)N1CCC(=C2c3ccc(Cl)cc3CCc3cccnc32)CC1 [Loratadine]
Control-VP-MCC ([1]; NPC library, therapeutic window: Control avg AUC minus VP-MCC avg AUC): 67.0216
Control-VN-MCC ([2]; NPC library, therapeutic window: Control avg AUC minus VN-MCC avg AUC): 36.1824
Control-MCC ([3]; NPC library, therapeutic window: Control avg AUC minus MCC avg AUC): 51.602

CCC(=O)C(CC(C)N(C)C)(c1ccccc1)c1ccccc1 (stereo not drawn) [Methadone hydrochloride]
Control-VP-MCC [1]: 55.4471
Control-VN-MCC [2]: 44.0199
Control-MCC [3]: 49.7335

CN1CC[C@]23c4c5ccc(O)c4O[C@H]2[C@@H](O)C=C[C@H]3[C@H]1C5 [Morphine sulfate pentahydrate]
Control-MCC [4]: 52.6315
Control-VP-MCC [1]: 53.1007
Control-VN-MCC [2]: 52.1622
Control-MCC [3]: 52.6314

COc1cc2nc(N3CCN(C(=O)C4CCCO4)CC3)nc(N)c2cc1OC (stereo not drawn) [Terazosin hydrochloride]
Control-VP-MCC [1]: 51.2361
Control-VN-MCC [2]: 50.4982
Control-MCC [3]: 50.8672

COc1cc(C(=O)NCc2ccc(OCCN(C)C)cc2)cc(OC)c1OC [Trimethobenzamide hydrochloride]
MCC13_AUC (MCC13 cells (VN-MCC)): 447.793
MCC26_AUC (MCC26 cells (VN-MCC)): 425.084
UISO_AUC (UISO cells (VN-MCC)): 426.826
WAGA_AUC (WAGA cells (VP-MCC)): 468.296
MKL1_AUC (MKL-1 cells (VP-MCC)): 452.093
MKL2_AUC (MKL-2 cells (VP-MCC)): 453.926
HACAT_AUC (HACAT cells): 491.547
HEK293T_AUC (HEK293T cells): 452.936
NIH3T3_AUC (NIH-3T3 cells): 459.509
CRL7250_AUC (CRL-7250 cells): 477.417

O=C(O)/C=C(\CC(=O)O)C(=O)O [trans-Aconitic acid]
MCC13_AUC (MCC13 cells (VN-MCC)): 525.202
MCC26_AUC (MCC26 cells (VN-MCC)): 496.696
UISO_AUC (UISO cells (VN-MCC)): 494.852
WAGA_AUC (WAGA cells (VP-MCC)): 441.902
MKL1_AUC (MKL-1 cells (VP-MCC)): 435.147
MKL2_AUC (MKL-2 cells (VP-MCC)): 378.194
HACAT_AUC (HACAT cells): 490.879
HEK293T_AUC (HEK293T cells): 467.145
NIH3T3_AUC (NIH-3T3 cells): 503.673
CRL7250_AUC (CRL-7250 cells): 486.622
